Assay results reported in US20120115865A1, “New Salts of an Indole Derivative and Their Use in Medicine” (priority 2006, published 2012).
Structures can show the parent of a compound that is named as a salt.

Experiment: Hygroscopicity by Dynamic Vapour Sorption Analysis (DVS)
Assay type: physicochemical
Conditions: 25° C.
Description: Dynamic Vapour Sorption Analysis (DVS)
The studies were undertaken using Dynamic Vapour Sorption Appararatus (DVS, Surface Measurement Systems, London UK). The apparatus consists of Cahn micobalance housed inside a temperature-controled cabinet. All experiments were performed at 25° C. The DVS was used to characterize the moisture uptake (% w/w) at different relative humidities (RH). Samples (5-10 mg) were weighed directly into the DSV sample cup and exposed to different relative humidities.

Compound | moisture uptake (relative humidity 40%) [% w/w] | moisture uptake (relative humidity 60%) [% w/w] | moisture uptake (relative humidity 80%) [% w/w]
N#Cc1ccc2[nH]c(O)c(-c3ccc(CN4CCOCC4)cn3)c2c1 [HCl, 2-hydroxy-3-[5-(morpholin-4-ylmethyl)pyridin-2-yl]1H-indole-5-carbonitrile, reference compound] | 8.7 | 11.5 | 13.0
N#Cc1ccc2[nH]c(O)c(-c3ccc(CN4CCOCC4)cn3)c2c1.O=P(O)(O)O [Phosphate, 2-hydroxy-3-[5-(morpholin-4-ylmethyl)pyridin-2-yl]1H-indole-5-carbonitrile phosphate] | 4.1 | 6.6 | 10.8
CCS(=O)(=O)O.N#Cc1ccc2[nH]c(O)c(-c3ccc(CN4CCOCC4)cn3)c2c1 [Esylate, 2-Hydroxy-3-[5-(morpholin-4-ylmethyl)pyridin-2-yl]1H-indole-5-carbonitrile esylate] | 0.5 | 0.8 | 1.2
N#Cc1ccc2[nH]c(O)c(-c3ccc(CN4CCOCC4)cn3)c2c1.O=C(O)/C=C\C(=O)O [Maleate, 2-hydroxy-3-[5-(morpholin-4-ylmethyl)pyridin-2-yl]1H-indole-5-carbonitrile maleate] | 1.7 | 2.2 | 2.7
N#Cc1ccc2[nH]c(O)c(-c3ccc(CN4CCOCC4)cn3)c2c1.O=C(O)/C=C/C(=O)O [Fumarate, 2-hydroxy-3-[5-(morpholin-4-ylmethyl)pyridin-2-yl]1H-indole-5-carbonitrile fumarate] | 3.8 | 4.5 | 5.1
2-Hydroxy-3-[5-(morpholin-4-ylmethyl)pyridin-2-yl]1H-indole-5-carbonitrile edisylate | 5.1 | 6.6 | 8.2
CS(=O)(=O)O.N#Cc1ccc2[nH]c(O)c(-c3ccc(CN4CCOCC4)cn3)c2c1 [Mesylate, 2-Hydroxy-3-[5-(morpholin-4-ylmethyl)pyridin-2-yl]1H-indole-5-carbonitrile mesylate] | 0.7 | 1.1 | 1.6
